Test results: patent US8889887B2, “Pentamethine cyanine fluorescent dyes, preparation methods and uses thereof” (Dalian University of Technology, priority 2011, dated 2014)
Values joined by “and” are separate entries in the source; they are usually repeats but may differ in a detail not shown here. Equal entries are not always repeated. Structures can show the parent of a compound that is named as a salt. Blank lines part the entries; values can stand above or below the molecule they belong to.

Legend:
Assay type in all cases: physicochemical
[1] = UV absorption and fluorescence emission spectra in different solvents; details: for λabs1 maximum absorption wavelength / λabs2 maximum absorption wavelength / λem1 maximum emission wavelength / λem2 maximum emission wavelength: 1 μM; for Φ1 fluorescence quantum yield / Φ2 fluorescence quantum yield / Φ fluorescence quantum yield (single peak): reference Rhodamine B in ethanol
Protocol: Firstly, stock solutions of 4 and 7 in DMSO were prepared respectively. Then sample solutions of 1 μM were prepared by diluting the mother liquors with corresponding chromatography grade solvent. UV absorption and fluorescence emission spectra of the sample solutions in different solvents were measured at room temperature, the results were shown in FIGS. 1A and 1B, respectively.

[2] = Viscosity experiments: absorption and emission spectra in glycerol-ethanol mixtures; details: glycerol-ethanol mixtures
Protocol: (§1) Firstly, DMSO solutions of 4 and 7 having a concentration of 1.0×10^−3 M were prepared, respectively. The stock solution of […] was added into 10 mL glycerol-ethanol mixture, and ultrasonicated to remove bubbles. The solution stayed for 1 hour, and then absorption and emission spectra therefore were measured by using UV-visible spectrophotometer and fluorescence spectrophotometer, and fluorescence lifetime of solution with different viscosity was detected as well. UV-visible spectrophotometer, model: Hp8453; fluorescence spectrophotometer model: FP-6500; Fluorescence lifetime equipment: Horiba Jobin Yvon Fluoromax-4-p.
(§2) Glycerol-ethanol mixture was a mixture of glycerol and ethanol, Vglycerol: Vethanol were 1:9, 2:8, 3:7, 4:6, 5:5, 6:4, 7:3, 8:2 and 9:1.

[3] = Fluorescence lifetime in solutions with different viscosity
Protocol: as §1, §2

Δλ1 Stokes Shift (λem1 − λabs1) ([1]; DMSO): 51 nm
Δλ2 Stokes Shift (λem2 − λabs2) ([1]; DMSO): 17 nm
Δλ3 Stokes Shift (λem2 − λabs1) ([1]; DMSO): 230 nm
ε1 molar extinction coefficient ([1]; DMSO): 15000 L/cm/mol
ε2 molar extinction coefficient ([1]; DMSO): 108500 L/cm/mol
λabs1 maximum absorption wavelength ([1]; DMSO): 400 nm
λabs2 maximum absorption wavelength ([1]; DMSO): 613 nm
λem1 maximum emission wavelength ([1]; DMSO): 451 nm
λem2 maximum emission wavelength ([1]; DMSO): 630 nm
Φ1 fluorescence quantum yield ([1]; DMSO): 0.0158
Φ2 fluorescence quantum yield ([1]; DMSO): 0.0224
Δλ1 Stokes Shift (λem1 − λabs1) ([1]; acetonitrile): 54 nm
Δλ2 Stokes Shift (λem2 − λabs2) ([1]; acetonitrile): 19 nm
Δλ3 Stokes Shift (λem2 − λabs1) ([1]; acetonitrile): 229 nm
ε1 molar extinction coefficient ([1]; acetonitrile): 11200 L/cm/mol
ε2 molar extinction coefficient ([1]; acetonitrile): 93500 L/cm/mol
λabs1 maximum absorption wavelength ([1]; acetonitrile): 397 nm
λabs2 maximum absorption wavelength ([1]; acetonitrile): 607 nm
λem1 maximum emission wavelength ([1]; acetonitrile): 451 nm
λem2 maximum emission wavelength ([1]; acetonitrile): 626 nm
Φ1 fluorescence quantum yield ([1]; acetonitrile): 0.0062
Φ2 fluorescence quantum yield ([1]; acetonitrile): 0.0071
Δλ1 Stokes Shift (λem1 − λabs1) ([1]; dichloromethane): 55 nm
Δλ2 Stokes Shift (λem2 − λabs2) ([1]; dichloromethane): 29 nm
Δλ3 Stokes Shift (λem2 − λabs1) ([1]; dichloromethane): 255 nm
ε1 molar extinction coefficient ([1]; dichloromethane): 16000 L/cm/mol
ε2 molar extinction coefficient ([1]; dichloromethane): 89700 L/cm/mol
λabs1 maximum absorption wavelength ([1]; dichloromethane): 399 nm
λabs2 maximum absorption wavelength ([1]; dichloromethane): 625 nm
λem1 maximum emission wavelength ([1]; dichloromethane): 454 nm
λem2 maximum emission wavelength ([1]; dichloromethane): 654 nm
Φ1 fluorescence quantum yield ([1]; dichloromethane): 0.0060
Φ2 fluorescence quantum yield ([1]; dichloromethane): 0.0231
Δλ1 Stokes Shift (λem1 − λabs1) ([1]; ethanol): 52 nm
Δλ2 Stokes Shift (λem2 − λabs2) ([1]; ethanol): 40 nm
Δλ3 Stokes Shift (λem2 − λabs1), pseudo-Stokes Shift ([1]; ethanol): 254 nm
ε1 molar extinction coefficient ([1]; ethanol): 13800 L/cm/mol
ε2 molar extinction coefficient ([1]; ethanol): 97500 L/cm/mol
λabs1 maximum absorption wavelength ([1]; ethanol): 399 nm
λabs2 maximum absorption wavelength ([1]; ethanol): 613 nm
λem1 maximum emission wavelength ([1]; ethanol): 451 nm
λem2 maximum emission wavelength ([1]; ethanol): 653 nm
Φ1 fluorescence quantum yield ([1]; ethanol): 0.0050
Φ2 fluorescence quantum yield ([1]; ethanol): 0.0108
sensitivity to solvent polarity ([1]; low-viscosity solvents of different polarity): insensitive to solvent polarity
Δλ1 Stokes Shift (λem1 − λabs1) ([1]; methanol): 51 nm
Δλ2 Stokes Shift (λem2 − λabs2) ([1]; methanol): 42 nm
Δλ3 Stokes Shift (λem2 − λabs1) ([1]; methanol): 250 nm
ε1 molar extinction coefficient ([1]; methanol): 14500 L/cm/mol
ε2 molar extinction coefficient ([1]; methanol): 99300 L/cm/mol
λabs1 maximum absorption wavelength ([1]; methanol): 400 nm
λabs2 maximum absorption wavelength ([1]; methanol): 608 nm
λem1 maximum emission wavelength ([1]; methanol): 451 nm
λem2 maximum emission wavelength ([1]; methanol): 650 nm
Φ1 fluorescence quantum yield ([1]; methanol): 0.0050
Φ2 fluorescence quantum yield ([1]; methanol): 0.0079
absorption peak, longer wavelength ([1]; solvent not stated): 610 nm
absorption peak, shorter wavelength ([1]; solvent not stated): 400 nm
emission peak, longer wavelength ([1]; solvent not stated): 650 nm
emission peak, shorter wavelength ([1]; solvent not stated): 456 nm and 460 nm
Δλ1 Stokes Shift (λem1 − λabs1) ([1]; water): 47 nm
Δλ2 Stokes Shift (λem2 − λabs2) ([1]; water): 43 nm
Δλ3 Stokes Shift (λem2 − λabs1) ([1]; water): 230 nm
ε1 molar extinction coefficient ([1]; water): 16800 L/cm/mol
ε2 molar extinction coefficient ([1]; water): 62100 L/cm/mol
λabs1 maximum absorption wavelength ([1]; water): 413 nm
λabs2 maximum absorption wavelength ([1]; water): 600 nm
λem1 maximum emission wavelength ([1]; water): 460 nm
λem2 maximum emission wavelength ([1]; water): 643 nm
Φ1 fluorescence quantum yield ([1]; water): 0.0023
Φ2 fluorescence quantum yield ([1]; water): 0.0032
sensitivity of fluorescence intensity to solvent viscosity [2]: quite sensitive to solvent viscosity
fluorescence lifetime ([3]; 99% glycerol solution): 1450 ps
fluorescence lifetime ([3]; pure ethanol): lower than 50 ps
Structure (SMILES): CCN1/C(=C/C=C(C=O)/C=C/C2=[N+](CC)c3ccccc3C2(C)C)C(C)(C)c2ccccc21 [compound 4, 1,5-di(1-N-ethyl-3,3-dimethyl-2,3-H-lindoline)-3-formyl-1,3,5-pentatriene chloride quaternary ammonium salt cyanine dye]

Δλ Stokes Shift (single peak) ([1]; DMSO): 13 nm
ε molar extinction coefficient (single peak) ([1]; DMSO): 272000 L/cm/mol
λabs maximum absorption wavelength (single peak) ([1]; DMSO): 655 nm
λem maximum emission wavelength (single peak) ([1]; DMSO): 668 nm
Φ fluorescence quantum yield (single peak) ([1]; DMSO): 0.33
Δλ Stokes Shift (single peak) ([1]; THF): 9 nm
ε molar extinction coefficient (single peak) ([1]; THF): 227000 L/cm/mol
λabs maximum absorption wavelength (single peak) ([1]; THF): 653 nm
λem maximum emission wavelength (single peak) ([1]; THF): 662 nm
Φ fluorescence quantum yield (single peak) ([1]; THF): 0.37
Δλ Stokes Shift (single peak) ([1]; dichloromethane): 6 nm
ε molar extinction coefficient (single peak) ([1]; dichloromethane): 306000 L/cm/mol
λabs maximum absorption wavelength (single peak) ([1]; dichloromethane): 661 nm
λem maximum emission wavelength (single peak) ([1]; dichloromethane): 671 nm
Φ fluorescence quantum yield (single peak) ([1]; dichloromethane): 0.29
Δλ Stokes Shift (single peak) ([1]; ethanol): 11 nm
ε molar extinction coefficient (single peak) ([1]; ethanol): 302000 L/cm/mol
λabs maximum absorption wavelength (single peak) ([1]; ethanol): 652 nm
λem maximum emission wavelength (single peak) ([1]; ethanol): 663 nm
Φ fluorescence quantum yield (single peak) ([1]; ethanol): 0.27
Δλ Stokes Shift (single peak) ([1]; methanol): 10 nm
ε molar extinction coefficient (single peak) ([1]; methanol): 259000 L/cm/mol
λabs maximum absorption wavelength (single peak) ([1]; methanol): 649 nm
λem maximum emission wavelength (single peak) ([1]; methanol): 659 nm
Φ fluorescence quantum yield (single peak) ([1]; methanol): 0.22
Δλ Stokes Shift (single peak) ([1]; water): 8 nm
ε molar extinction coefficient (single peak) ([1]; water): 227000 L/cm/mol
λabs maximum absorption wavelength (single peak) ([1]; water): 648 nm
λem maximum emission wavelength (single peak) ([1]; water): 656 nm
Φ fluorescence quantum yield (single peak) ([1]; water): 0.13
Structure (SMILES): CCN1/C(=C/C=C/C=C/C2=[N+](CC)c3ccccc3C2(C)C)C(C)(C)c2ccccc21 [ethyl-Cy5, reference compound]
